Measurements from ChEMBL document CHEMBL3727350, “Agents and methods for treating ischemic and other diseases” (2014).

Biological target: Transient receptor potential cation channel subfamily M member 7 (Mus musculus) (UniProt Q923J1)
Test: Inhibition of Tet-induced Flag-tagged mouse TRPM7 expressed in HEK293 cells assessed as inhibition of channel-mediated cell death in presence of Mg2+ incubated for 24 to 48 hrs by propidium iodide uptake assay
Assay type: cell-based
Set-up: concentration or dose not given beside the values
Conditions: concentration not given here

Chain of Transient receptor potential cation channel subfamily M member 7 (Mus musculus) (Q923J1 whole entry): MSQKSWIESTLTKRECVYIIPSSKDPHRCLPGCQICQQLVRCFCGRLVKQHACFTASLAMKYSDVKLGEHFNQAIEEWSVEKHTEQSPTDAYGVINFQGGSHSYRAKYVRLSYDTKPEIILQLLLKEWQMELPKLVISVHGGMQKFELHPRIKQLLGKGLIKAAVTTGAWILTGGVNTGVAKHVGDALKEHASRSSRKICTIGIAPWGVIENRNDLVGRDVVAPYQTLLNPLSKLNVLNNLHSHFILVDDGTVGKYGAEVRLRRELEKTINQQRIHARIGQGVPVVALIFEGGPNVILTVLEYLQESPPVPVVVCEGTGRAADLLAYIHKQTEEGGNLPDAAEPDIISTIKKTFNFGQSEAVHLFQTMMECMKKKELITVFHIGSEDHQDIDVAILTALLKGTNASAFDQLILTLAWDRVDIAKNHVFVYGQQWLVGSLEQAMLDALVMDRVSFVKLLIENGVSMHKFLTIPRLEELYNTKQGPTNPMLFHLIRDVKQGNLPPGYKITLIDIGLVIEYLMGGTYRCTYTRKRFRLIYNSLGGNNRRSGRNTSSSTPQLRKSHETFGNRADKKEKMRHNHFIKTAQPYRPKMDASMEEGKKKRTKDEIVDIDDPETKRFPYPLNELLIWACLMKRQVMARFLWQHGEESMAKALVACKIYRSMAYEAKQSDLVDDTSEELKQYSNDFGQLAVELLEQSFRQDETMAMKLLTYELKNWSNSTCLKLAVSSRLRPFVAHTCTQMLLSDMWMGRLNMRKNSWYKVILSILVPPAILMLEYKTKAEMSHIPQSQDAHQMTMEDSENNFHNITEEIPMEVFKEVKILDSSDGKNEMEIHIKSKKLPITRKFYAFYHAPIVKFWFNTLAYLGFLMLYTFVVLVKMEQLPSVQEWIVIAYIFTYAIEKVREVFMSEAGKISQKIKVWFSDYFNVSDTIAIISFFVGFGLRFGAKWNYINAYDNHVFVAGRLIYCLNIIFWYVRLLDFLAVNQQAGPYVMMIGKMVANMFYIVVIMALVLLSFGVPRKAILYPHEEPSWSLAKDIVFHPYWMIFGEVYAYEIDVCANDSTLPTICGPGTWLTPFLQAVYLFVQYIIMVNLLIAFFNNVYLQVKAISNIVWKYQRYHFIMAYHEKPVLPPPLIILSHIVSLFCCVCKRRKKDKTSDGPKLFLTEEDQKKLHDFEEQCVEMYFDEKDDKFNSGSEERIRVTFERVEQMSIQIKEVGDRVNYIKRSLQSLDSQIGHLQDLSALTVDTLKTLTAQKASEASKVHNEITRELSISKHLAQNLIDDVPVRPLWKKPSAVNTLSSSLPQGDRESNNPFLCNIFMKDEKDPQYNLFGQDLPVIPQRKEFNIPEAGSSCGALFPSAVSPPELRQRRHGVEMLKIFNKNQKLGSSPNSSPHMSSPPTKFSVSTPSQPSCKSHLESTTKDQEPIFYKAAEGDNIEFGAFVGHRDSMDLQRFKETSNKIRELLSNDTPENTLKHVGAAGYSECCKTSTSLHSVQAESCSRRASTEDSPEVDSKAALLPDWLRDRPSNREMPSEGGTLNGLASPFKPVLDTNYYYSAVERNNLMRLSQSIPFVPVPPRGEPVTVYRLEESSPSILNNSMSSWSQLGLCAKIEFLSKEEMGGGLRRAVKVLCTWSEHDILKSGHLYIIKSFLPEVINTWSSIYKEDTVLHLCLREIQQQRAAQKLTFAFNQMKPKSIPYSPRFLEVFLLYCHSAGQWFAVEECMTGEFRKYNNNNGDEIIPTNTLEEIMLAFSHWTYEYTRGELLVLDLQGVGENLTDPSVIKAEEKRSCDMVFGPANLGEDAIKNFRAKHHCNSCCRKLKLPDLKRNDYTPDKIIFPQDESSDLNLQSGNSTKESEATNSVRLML

Row | SMILES | inhibition [%]
1 | N#C/C(=N\Nc1cccc(C(F)(F)F)c1)C(=O)c1csc(-c2cccnc2)n1 | 60
2 | Cc1cc2c(cc1C)CSC(C)(c1ccc(F)cc1)SC2 | < 30
3 | CSc1scc2c1-c1n[nH]cc1CC2 | < 30
4 | COc1ccc(/C=N/NS(=O)(=O)c2ccc(Cl)cc2)cc1OC | 80
5 | C/C(=N\Nc1c(C)cccc1Cl)c1ccc(Oc2ncc([N+](=O)[O-])s2)cc1 | < 30
6 | Cc1ccc(-c2nc(NC(=O)Nc3ccccc3)sc2C)cc1Cl | < 30
7 | COc1ccc(C(=O)Nc2c(-c3ccc(Br)cc3)c(C(F)(F)F)nn2C)cc1OC | < 30
8 | O=C(NNC(=S)Nc1ccc2c(c1)CCCO2)c1ccco1 | < 30
9 | O=C(NC(=O)c1c(Cl)cccc1Cl)Nc1nc2cc(Cl)ccc2s1 | 50
10 | CN(C(=O)c1cnc(Oc2ccc(Cl)cc2)cc1C(F)(F)F)c1ccc(Cl)c(Cl)c1 | 60
11 | CS/C(=N\c1ccc(C)cc1)Nc1ccc(C)cc1 | 50
12 | Cc1nc(-c2ccc(C(F)(F)F)cc2)nc(O)c1Cl | < 30
13 | COc1cccc(/C=C2/C=C(C3CCCS3)OC2=O)c1OC (centres undefined) | < 30
14 | O=S(=O)(c1cccc(Cl)c1)N1CCC(O)(c2ccc(Cl)cc2)CC1 | 70
15 | Cc1ccc(Cn2nc(C(=O)O/N=C(\N)c3cccc(C(F)(F)F)c3)cc2C)cc1 | < 30
16 | O=c1c(Cc2ccc(Br)cc2)csc2ccccc12 | < 30
17 | CC(C)NC(=O)n1ccc(-c2nn(-c3ccc(F)cc3)ccc2=O)n1 | < 30
18 | Cc1ccc(C(=O)Nc2ccc3c(c2)CS(=O)(=O)C3)cc1 | < 30
19 | CCOC(=O)c1cc2c(NC(=O)c3ccc(Cl)cc3)c(C(=O)OCC)sc2nc1C(F)(F)F | < 30
20 | CCCCCc1ccc(S(=O)(=O)Nc2ccccc2C(=O)NCC2CC2)cc1 | 60
21 | CC(=O)OC[C@H](OC(C)=O)[C@@H](OC(C)=O)[C@@H](OC(C)=O)[C@H](OC(C)=O)c1nnn[nH]1 | < 30
22 | O=C(/C=N/O)Nc1ccccc1F | < 30
23 | O=[N+]([O-])c1cccc(-c2ccc(/C=N/NC(=S)NCc3ccco3)o2)c1 | < 30
24 | COc1ccc(C2C3CCc4ccccc4C3=NN2CCOC(=O)Nc2ccc(Cl)cc2)cc1 (centres undefined) | 60
